# According to patent publication US7759350B2, “Pyrimidine carboxamides” (Orchid Research Laboratories Ltd., priority 2005, dated 2010):
# Key:
# TNF-α = experiment: In vitro measurement of TNF-α in human PBMC; assay type: cell-based; details: LPS
# Description: In Vitro Measurement of Tumor Necrosis Factor Alpha (TNF-α)
# This assay determines the effect of test compounds on the production of TNF-α in human Peripheral Blood Mononuclear Cells (PBMC). Compounds were tested for their ability to inhibit the activity of TNF-α in human PBMC. PBMC were isolated from blood (from healthy volunteers) using BD Vacutainer CPT™ (Cell preparation tube, BD Bio Science) and suspended in RPMI medium (Physiol. Res. 52; 593-598, 2003). The test compounds were pre-incubated with PBMC (0.5 million/incubation well) for 15 minutes at 37° C. and then stimulated with Lipopolysaccharide (Escherichia coli: B4; 1 μg/ml) for 18 hours at 37° C. in 5% CO2. The levels of TNF-α in the cell culture medium were estimated using enzyme linked Immunosorbent assay performed in a 96 well format as per the procedure of the manufacturer (R&D Systems, Inc. 614 McKinley Place Nebr., Minneapolis, Minn. 55413, USA).
# IL-6 = experiment: In vitro measurement of IL-6 in human PBMC; assay type: cell-based; details: LPS; for inhibition at 10 µM: Conc. 10 μM
# Description: (§1) In vitro Measurement of Interleukin-6 (IL-6) & Interleukin-1β (IL1β)
# (§2) This assay determines the effect of test compounds on the production of IL-6 and IL1β in human PBMC (Physiol. Res. 52: 593-598, 2003). Compounds were tested for their ability to inhibit the activity of IL-6 and IL1β in human PBMC. PBMC were isolated from blood using BD Vacutainer CPT™ Cell preparation tube (BD Bio Science) and suspended in RPMI medium. The test compounds were preincubated with PBMC (0.5 million/incubation well) for 15 minutes at 37° C. and then stimulated with Lipopolysaccharide (Escherichia coli: B4; 1 μg/ml) for 18 hours at 37° C. in 5% CO2. The levels of IL-6 and IL1β in cell culture medium were estimated using enzyme linked Immunosorbent assay performed in a 96 well format as per the procedure of the manufacturer (R&D Systems, Inc. 614 McKinley Place Nebr., Minneapolis, Minn. 55413, USA).
# IL-1β = experiment: In vitro measurement of IL-1β in human PBMC; assay type: cell-based; details: LPS
# Description: as §1, §2
# NCI-H460 = experiment: Anti-cancer screen (MTT), NCI-H460; assay type: cell-based; details: Homo sapiens, NCI-H460; 48 hours, MTT
# Description: (§3) Experimental drugs are screened for anti-cancer activity in three cell lines for their GI50, TGI and LC50 values (using five concentrations for each compound). The cell lines are maintained in DMEM containing 10% fetal bovine serum. 96 well microtiter plates are inoculated with cells in 100 μL for 24 h at 37° C., 5% CO2, 95% air and 100% relative humidity. 5000 HCT116 cells/well, 5000 NCIH460 cells/well, 10000 U251 cells/well and 5000 MDAMB231 cells/well are plated. A separate plate with these cell lines is also inoculated to determine cell viability before the addition of the compounds (T0).
# Following 24 hours incubation, experimental drugs are added to the 96 well plates. […] Compounds are dissolved in dimethylsulfoxide (DMSO) to make 20 mM stock solutions on the day of drug addition and frozen at −20° C. […] Standard drugs whose anti-cancer activity has been well documented and which are regularly used are doxorubicin and SAHA.
# (§4) Cells are incubated with compounds for 48 hours followed by the addition of 10 μL 3-(4,5-Dimethyl-2-thiazolyl)-2,5-diphenyl-2H-tetrazolium (MTT) solution per well and a subsequent incubation at 37° C., 5% CO2, 95% air and 100% relative humidity, protected from light. After 4 hours, well contents are aspirated carefully followed by addition of 150 μL DMSO per well. Plates are agitated to ensure solution of the formazan crystals in dimethylsulphoxide and absorbance read at 570 nm.
# (§5) Percent growth is calculated for each compound's concentration relative to the control and zero measurement wells (To; viability right before compound addition). If a test well's O.D. value is greater than the To measurement for that cell line % Growth=(test−zero)/(control−zero)×100
# (§6) If a test well's O.D. value is lower than the T0 measurement for that cell line, […]
# HCT116 = experiment: Anti-cancer screen (MTT), HCT116; assay type: cell-based; details: Homo sapiens, HCT-116, 48 hours
# Description: as §3
# (§7) Following 24 hours incubation, experimental drugs are added to the 96 well plates. Each plate contains one of the above cell lines and the following in triplicate: five different concentrations (0.01, 0.1, 1, 10 and 100 μM) of four different compounds, appropriate dilutions of a cytotoxic standard and control (untreated) wells. Compounds are dissolved in dimethylsulfoxide (DMSO) to make 20 mM stock solutions on the day of drug addition and frozen at −20° C. Serial dilutions of these 20 mM stock solutions are made in complete growth medium such that 100 μL of these drug solutions in medium, of final concentrations equaling 0.01, 0.1, 1, 10 and 100 μM can be added to the cells in triplicate. Standard drugs whose anti-cancer activity has been well documented and which are regularly used are doxorubicin and SAHA.
# as §4, §5, §6
# U251 = experiment: Anti-cancer screen (MTT), U251; assay type: cell-based; details: Homo sapiens, U-251, 48 hours
# Description: as §3, §7, §4, §5, §6
SMILES,GI50 (NCI-H460),GI50 (HCT116),GI50 (U251),other results
"CSc1ccc(-c2nc(O)c(C(=O)Nc3ccc(C)cc3)c(SC)n2)cc1 [Example 1, 4-Hydroxy-N-(4-methylphenyl)-6-(methylthio)-2-[4-(methylthio)phenyl]pyrimidine-5-carboxamide]",–,–,–,melting point: 302 to 305 °C
"CSc1ccc(-c2nc(O)c(C(=O)Nc3ccc(C)c(C)c3)c(SC)n2)cc1 [Example 2, 4-Hydroxy-N-(3,4-dimethylphenyl)-6-(methylthio)-2-[4-(methylthio)phenyl]pyrimidine-5-carboxamide]",–,–,–,melting point: 303 to 305 °C
"CNc1nc(-c2cccnc2)nc(NC)c1C(=O)Nc1ccc(C)c(C)c1 [Example 7, N-(3,4-Dimethylphenyl)-4,6-bis(methylamino)-2-pyridin-3-ylpyrimidine-5-carboxamide]",–,–,–,inhibition at 0.1 µM (TNF-α): 30.4%; inhibition at 10 µM (IL-6): 53.8%; IL-1β Inhibition (%) (IL-1β; Conc. 10 μM): Not active; melting point: 285 to 286 °C
"CCc1ccc(NC(=O)c2c(NC)nc(-c3ccc(S(N)(=O)=O)cc3)nc2NC)cc1 [Example 16, 2-[4-(Aminosulfonyl)phenyl]-4,6-bis(methylamino)-N-(4-ethylphenyl)pyrimidine-5-carboxamide]",–,–,–,inhibition at 10 µM (TNF-α; at 10 μM): 53.1%
"CCc1ccc(NC(=O)c2c(NC)nc(-c3ccc(S(N)(=O)=O)cc3)nc2SC)cc1 [Example 17, 2-[4-(Aminosulfonyl)phenyl]-N-(4-ethylphenyl)-4-(methylamino)-6-(methylthio)pyrimidine-5-carboxamide]",–,–,–,inhibition at 0.1 µM (TNF-α): 30.1%
"CNc1nc(-c2ccncc2)nc(SC)c1C(=O)Nc1ccc(F)cc1 [Example 18, N-(4-Fluorophenyl)-4-(methylamino)-6-(methylthio)-2-pyridin-4-ylpyrimidine-5-carboxamide]",2000 nM,1200 nM,–,–
"CNc1nc(-c2ccc(SC)cc2)nc(SC)c1C(=O)Nc1ccc(OC)cc1 [Example 20, 4-(Methylamino)-N-(4-methoxyphenyl)-6-(methylthio)-2-[4-(methylthio)phenyl]pyrimidine-5-carboxamide]",3200 nM,–,–,–
"CCc1ccc(NC(=O)c2c(NC)nc(-c3ccncc3)nc2SC)cc1 [Example 21, N-(4-Ethylphenyl)-4-(methylamino)-6-(methylthio)-2-pyridin-4-ylpyrimidine-5-carboxamide]",400 nM,9500 nM,–,–
"CNc1nc(-c2ccncc2)nc(SC)c1C(=O)Nc1ccc(C)cc1 [Example 24, 4-(Methylamino)-N-(4-methylphenyl)-6-(methylthio)-2-pyridin-4-ylpyrimidine-5-carboxamide]",4000 nM,9900 nM,–,–
"CSc1ccc(-c2nc(NCCO)c(C(=O)Nc3ccc(C)c(C)c3)c(SC)n2)cc1 [Example 32, N-(3,4-Dimethylphenyl)-4-[(2-hydroxyethyl)amino]-6-(methylthio)-2-[4-(methylthio)phenyl]pyrimidine-5-carboxamide]",–,4000 nM,3000 nM,–
"CNc1nc(-c2ccncc2)nc(SC)c1C(=O)Nc1ccc(C(C)C)cc1 [Example 34, N-(4-Isoproylphenyl)-4-(methylamino)-6-(methylthio)-2-pyridin-4-ylpyrimidine-5-carboxamide]",900 nM,9000 nM,–,–
CCCCc1ccc(NC(=O)c2c(NC)nc(-c3ccc(SC)cc3)nc2SC)cc1 [Example 36],3000 nM,–,1800 nM,inhibition at 0.1 µM (IL-6; Conc. 0.1 μM): 26.6%; IL-1β Inhibition (%) (IL-1β; Conc. 0.1 μM): Not active
"CNc1nc(-c2ccc(SC)cc2)nc(SC)c1C(=O)Nc1ccc(C)cc1C [Example 39, N-(2,4-Dimethylphenyl)-4-(methylamino)-6-(methylthio)-2-[4-(methylthio)phenyl]pyrimidine-5-carboxamide]",2000 nM,–,90 nM,–
"CCOc1ccc(NC(=O)c2c(NC)nc(-c3ccc(SC)cc3)nc2SC)cc1 [Example 40, N-(4-Ethoxyphenyl)-4-(methylamino)-6-(methylthio)-2-[4-(methylthio)phenyl]pyrimidine-5-carboxamide]",500 nM,2000 nM,100 nM,inhibition at 10 µM (IL-6): 61.5%; IL-1β Inhibition (%) (IL-1β; Conc. 10 μM): Not active
"CSc1ccc(-c2nc(SC)c(C(=O)Nc3ccc(C)c(C)c3)c(N3CCNCC3)n2)cc1 [Example 42, N-(3,4-Dimethylphenyl)-6-(methylthio)-2-[4-(methylthio)phenyl]-4-piperazin-1-ylpyrimidine-5-carboxamide]",3000 nM,4000 nM,5000 nM,inhibition at 10 µM (IL-6): 92.2%; IL-1β Inhibition (%) (IL-1β; Conc. 10 μM): Not active
"CNc1nc(-c2ccc(F)cc2)nc(SC)c1C(=O)Nc1ccc(SC)cc1 [Example 45, 2-(4-Fluorophenyl)-4-(methylamino)-6-(methylthio)-N-[4-(methylthio)phenyl]pyrimidine-5-carboxamide]",400 nM,–,700 nM,–
"CSc1nc(-c2ccncc2)nc(NCCO)c1C(=O)Nc1ccc(Br)cc1 [Example 46, N-(4-Bromophenyl)-4-[(2-hydroxyethyl)amino]-6-(methylthio)-2-pyridin-4-ylpyrimidine-5-carboxamide]",200 nM,–,200 nM,–
"CSc1nc(-c2ccncc2)nc(NCCO)c1C(=O)Nc1ccc(Cl)cc1 [Example 47, N-(4-Chlorophenyl)-4-[(2-hydroxyethyl)amino]-6-(methylthio)-2-pyridin-4-ylpyrimidine-5-carboxamide]",100 nM,–,300 nM,–
"CSc1ccc(-c2nc(NN)c(C(=O)Nc3ccc(C)c(C)c3)c(SC)n2)cc1 [Example 48, N-(3,4-Dimethylphenyl)-4-hydrazino-6-(methylthio)-2-[4-(methylthio)phenyl]pyrimidine-5-carboxamide]",5000 nM,2500 nM,3000 nM,–
"CNc1nc(-c2ccc(N(C)C)cc2)nc(SC)c1C(=O)Nc1ccc(OC)cc1 [Example 57, 2-[4-(Dimethylamino)phenyl]-4-(methylamino)-N-(4-methoxyphenyl)-6-(methylthio)pyrimidine-5-carboxamide]",7000 nM,–,4000 nM,–
"CNc1nc(-c2cccnc2)nc(SC)c1C(=O)Nc1ccc(OC)cc1.O=P(O)(O)O [Example 59, N-(4-Methoxyphenyl)-4-(methylamino)-6-(methylthio)-2-pyridin-3-ylpyrimidine-5-carboxamide orthophosphoric acid salt]",–,–,–,melting point: 222 to 225 °C
